Assay results reported in US8946280B2, “Plant growth regulating compounds” (Syngenta Participations AG, priority 2010, dated 2015).

System: Orobanche cumana Wallr. seeds (race F; seed lots IN146 and IN153)
Assay: Germination of preconditioned Orobanche cumana seeds on glass fiber filter paper in petri dishes
Format: in vivo
Settings: mean, N = 5 × 100 seeds, re-transformed data; for Germination (%): seed lot IN146 raceF, examined 10 days later
Protocol: The effect of compounds of formula (I) on germination of Orobanche cumana Wallr. seeds was evaluated on glass fiber filter paper (GFFP) in petri dishes. Seeds were preconditioned at moisture and suitable temperature to become responsive to the specific chemical germination stimulants.
Test compounds were dissolved in DMSO (10 000 mg 1^−1) and stored at room temperature in a desiccators with desiccants. The stock solutions were dissolved with deionised water to the appropriate final test concentration.
Seeds of O. cumana race ‘F’ were collected from sunflower fields in Manzanilla (Seville, Spain) in 2006 (seed lot IN146) and 2008 (seed lot IN153) and stored at room temperature. To separate seeds from heavy organic debris, a modified sucrose floatation technique as described by Hartman & Tanimonure (Plant Disease (1991), 75, p. 494) was applied. Seeds were filled into a separation funnel and stirred in water. When seeds floated to the surface, the water fraction containing heavy debris was discarded. Seeds were re-suspended in 2.5M sucrose solution (specific gravity of 1.20) and heavy debris was allowed to settle down for 60 min. After removing debris, seeds were disinfected in 1% sodium hypochlorite solution and 0.025% (v/v) Tween 20 for 2 min. The seeds were decanted onto two layers of cheesecloth, rinsed with sterile deionised water and re-suspended in sterile deionised water. Two ml of the seed suspension containing approximately 150-400 seeds were spread evenly on two layers of sterile glass fiber filter paper disc ([…]) in Petri dishes (Ø9 cm). After wetting the discs with 3 ml sterile deionised water, petri dishes were sealed with parafilm. Seeds were incubated for 10 days at 20° C. in the dark for seed conditioning. The upper disc with conditioned seeds was briefly dried, transferred to a petri dish lined with a dry GFFP disc, and wetted with 6 ml of the appropriate test solution. The compounds of formula (I) were tested at concentrations of 0.001, 0.01, and 0.1 mg 1^−1. The strigolactone analogue GR24 (commercially available as a mixture of isomers) was included as positive control and 0.001% DMSO as negative control. All treatments were tested in five replicates. Seeds were re-incubated at 20° C. in the dark and examined for germination 10 days later. The radicles of germinated seeds were stained for 5 min with blue ink (MIGROS, Switzerland) in 5% acetic acid according to Long et al. (Seed Science Research (2008), 18, p. 125). After staining, seeds were scanned using a flatbed scanner with an optical resolution of 1200 dpi (PULSTEK, OpticPro ST28) or photographed using a camera stand mounted with a digital SLR camera (Canon EOS 5D). Germination of 100 seeds per replicate was evaluated on digital images. Seeds were considered germinated when the radicle protruded from the seed coat. SAS statistical software package version 9.1 was used for analysis of variance (GLM procedure) and multiple comparisons of treatment means (Sidak t-test) based on arcsine transformed percentage germination data.

[1] = Table 7, seed lot IN153, race F, 0.001 mg l^−1
[2] = Table 7, seed lot IN153, race F, 0.01 mg l^−1
[3] = Table 7, seed lot IN153, race F, 0.1 mg l^−1
[4] = Table 8, seed lot IN153, race F, 0.001 mg l^−1
[5] = Table 8, seed lot IN153, race F, 0.01 mg l^−1
[6] = Table 8, seed lot IN153, race F, 0.1 mg l^−1
[7] = Table 5, seed lot IN146, race F, 0.001 mg l^−1
[8] = Table 5, seed lot IN146, race F, 0.01 mg l^−1
[9] = Table 5, seed lot IN146, race F, 0.1 mg l^−1
[10] = Table 6, seed lot IN146, race F, 0.001 mg l^−1
[11] = Table 6, seed lot IN146, race F, 0.01 mg l^−1
[12] = Table 6, seed lot IN146, race F, 0.1 mg l^−1
[13] = 0.001 mg l^−1, lot IN146, raceF, Table 4
[14] = 0.01 mg l^−1, lot IN146, raceF, Table 4
[15] = 0.1 mg l^−1, lot IN146, raceF, Table 4

Compound: CC1=CC(OC=C2C(=O)N(c3ccccc3)C3c4ccccc4CC23)OC1=O (stereo not drawn) [Compound A17]
- Germination % at concentration of 0.001 mg l^−1 [1]: 99.2 a %
- Germination % at concentration of 0.01 mg l^−1 [2]: 98.9 a %
- Germination % at concentration of 0.1 mg l^−1 [3]: 99.4 a %

Compound: CC1=CC(OC=C2C(=O)N(c3nccs3)C3c4ccccc4CC23)OC1=O (stereo not drawn) [Compound A26]
- Germination % at concentration of 0.001 mg l^−1 [4]: 93.9 abc %
- Germination % at concentration of 0.01 mg l^−1 [5]: 95.4 ab %
- Germination % at concentration of 0.1 mg l^−1 [6]: 93.9 abc %

Compound: GR-24
- Germination % at concentration of 0.001 mg l^−1 [7]: 21.2 de %
- Germination % at concentration of 0.01 mg l^−1 [8]: 33.3 cd %
- Germination % at concentration of 0.1 mg l^−1 [9]: 45.9 bcd %
- Germination % at concentration of 0.001 mg l^−1 [10]: 17.5 d %
- Germination % at concentration of 0.01 mg l^−1 [11]: 61.4 c %
- Germination % at concentration of 0.1 mg l^−1 [12]: 86.6 ab %
- Germination % at concentration of 0.001 mg l^−1 [1]: 89.5 ab %
- Germination % at concentration of 0.01 mg l^−1 [2]: 97.2 a %
- Germination % at concentration of 0.1 mg l^−1 [3]: 96.2 ab %
- Germination % at concentration of 0.001 mg l^−1 [4]: 84.1 abcde %
- Germination % at concentration of 0.01 mg l^−1 [5]: 94.1 abc %
- Germination % at concentration of 0.1 mg l^−1 [6]: 97.0 a %

Compound: CC1=CC(O/C=C2/C(=O)N(Cc3ccc(F)cc3)C3c4ccccc4CC23)OC1=O (stereo not drawn) [A27*, (3E)-1-[(4-fluorophenyl)methyl]-3-[(4-methyl-5-oxo-2H-furan-2-yl)oxymethylene]-4,8b-dihydro-3aH-indeno[1,2-b]pyrrol-2-one]
- Germination % at concentration of 0.001 mg l^−1 [4]: 7.7 fg %
- Germination % at concentration of 0.01 mg l^−1 [5]: 63.3 abcde %
- Germination % at concentration of 0.1 mg l^−1 [6]: 80.1 abcde %

Compound: CC1=CC(OC=C2C(=O)N(C(=O)OC(C)(C)C)C3c4ccccc4CC23)OC1=O (mixture of isomers) [A15*]
- Germination % at concentration of 0.001 mg l^−1 [7]: 0 e %
- Germination % at concentration of 0.01 mg l^−1 [8]: 12.4 de %
- Germination % at concentration of 0.1 mg l^−1 [9]: 25 d %

Compound: CCCc1cccc2c1C1NC(=O)C(=COC3C=C(C)C(=O)O3)C1C2 (stereo not drawn) [Compound A13]
- Germination % at concentration of 0.001 mg l^−1 [13]: 14.3 de %
- Germination % at concentration of 0.01 mg l^−1 [14]: 64.5 abcd %
- Germination % at concentration of 0.1 mg l^−1 [15]: 21.5 cde %

Compound: CC1=CC(OC=C2C(=O)NC3c4cccc(Br)c4CC23)OC1=O (stereo not drawn) [Compound A2]
- Germination % at concentration of 0.001 mg l^−1 [7]: 76.9 abc %
- Germination % at concentration of 0.01 mg l^−1 [8]: 82 ab %
- Germination % at concentration of 0.1 mg l^−1 [9]: 83.2 ab %

Compound: CC1=C[C@H](O/C=C2/C(=O)O[C@@H]3c4ccccc4C[C@H]23)OC1=O [GR24, reference compound]
- Germination (%) (0.001 mg l^−1): 25.9%
- Germination (%) (0.01 mg l^−1): 44.9%
- Germination (%) (0.1 mg l^−1): 59.8%

Compound: CC1=CC(OC=C2C(=O)N(c3ccc(C#N)cn3)C3c4ccccc4CC23)OC1=O (mixture of isomers) [A16*]
- Germination % at concentration of 0.001 mg l^−1 [4]: 7.8 fg %
- Germination % at concentration of 0.01 mg l^−1 [5]: 60.6 cde %
- Germination % at concentration of 0.1 mg l^−1 [6]: 88.2 abc %

Compound: CC1=CC(O/C=C2/C(=O)NC3c4ccccc4C[C@H]23)OC1=O (stereo in doubt) [Compound P1, (3aR*,8bS*,5′R*)-3-[1-(4-Methyl-5-oxo-2,5-dihydro-furan-2-yloxy)-meth-(E)-ylidene]-3,3a,4,8b-tetrahydro-1H-indeno[1,2-b]pyrrol-2-one]
- Germination (%) (0.001 mg l^−1): 70.5%
- Germination (%) (0.01 mg l^−1): 83.7%
- Germination (%) (0.1 mg l^−1): 83.1%

Compound: CC1=CC(OC=C2C(=O)NC3c4c(C)cccc4CC23)OC1=O (stereo not drawn) [Compound A8]
- Germination % at concentration of 0.001 mg l^−1 [10]: 72.9 bc %
- Germination % at concentration of 0.01 mg l^−1 [11]: 84.4 abc %
- Germination % at concentration of 0.1 mg l^−1 [12]: 69.9 bc %

Compound: CC1=CC(OC=C2C(=O)N(c3ccc(C(F)(F)F)cc3)C3c4ccccc4CC23)OC1=O (mixture of isomers) [A19*]
- Germination % at concentration of 0.001 mg l^−1 [4]: 71.5 abcde %
- Germination % at concentration of 0.01 mg l^−1 [5]: 92.2 abc %
- Germination % at concentration of 0.1 mg l^−1 [6]: 96.4 a %

Compound: C=CCN1C(=O)C(=COC2C=C(C)C(=O)O2)C2Cc3ccccc3C21 (mixture of isomers) [A29*]
- Germination % at concentration of 0.001 mg l^−1 [4]: 90.3 abc %
- Germination % at concentration of 0.01 mg l^−1 [5]: 94.5 abc %
- Germination % at concentration of 0.1 mg l^−1 [6]: 94.0 abc %

Compound: CC(=O)N1C(=O)C(=COC2C=C(C)C(=O)O2)C2Cc3ccccc3C21 (stereo not drawn) [Compound A22]
- Germination % at concentration of 0.001 mg l^−1 [4]: 87.6 abc %
- Germination % at concentration of 0.01 mg l^−1 [5]: 95.3 ab %
- Germination % at concentration of 0.1 mg l^−1 [6]: 95.7 ab %

Compound: CC1=CC(OC=C2C(=O)N(CC#N)C3c4ccccc4CC23)OC1=O (mixture of isomers) [A28*]
- Germination % at concentration of 0.001 mg l^−1 [4]: 42.4 ef %
- Germination % at concentration of 0.01 mg l^−1 [5]: 89.2 abc %
- Germination % at concentration of 0.1 mg l^−1 [6]: 96.3 ab %

Compound: CC1=CC(OC=C2C(=O)NC3c4cc(C)ccc4CC23)OC1=O (stereo not drawn) [Compound A3]
- Germination % at concentration of 0.001 mg l^−1 [1]: 96.4 ab %
- Germination % at concentration of 0.01 mg l^−1 [2]: 98.5 a %
- Germination % at concentration of 0.1 mg l^−1 [3]: 98.0 a %

Compound: CC1=CC(OC=C2C(=O)NC3c4c(C#N)cccc4CC23)OC1=O (mixture of isomers) [A12*]
- Germination % at concentration of 0.001 mg l^−1 [13]: 0 e %
- Germination % at concentration of 0.01 mg l^−1 [14]: 4.2 e %
- Germination % at concentration of 0.1 mg l^−1 [15]: 32 bcde %

Compound: CC1=CC(OC=C2C(=O)NC3c4ccc(Cl)cc4CC23)OC1=O (stereo not drawn) [Compound A10]
- Germination % at concentration of 0.001 mg l^−1 [13]: 81.3 abc %
- Germination % at concentration of 0.01 mg l^−1 [14]: 84.0 ab %
- Germination % at concentration of 0.1 mg l^−1 [15]: 85.1 ab %

Compound: COc1ccc(N2C(=O)C(=COC3C=C(C)C(=O)O3)C3Cc4ccccc4C32)cc1 (stereo not drawn) [Compound A20]
- Germination % at concentration of 0.001 mg l^−1 [1]: 2.0 c %
- Germination % at concentration of 0.01 mg l^−1 [2]: 14.4 c %
- Germination % at concentration of 0.1 mg l^−1 [3]: 89.3 ab %

Compound: CC1=CC(OC=C2C(=O)NC3c4ccc(F)cc4CC23)OC1=O (stereo not drawn) [Compound A9]
- Germination % at concentration of 0.001 mg l^−1 [10]: 90.2 ab %
- Germination % at concentration of 0.01 mg l^−1 [11]: 85.2 abc %
- Germination % at concentration of 0.1 mg l^−1 [12]: 71.5 bc %

Compound: CC1=CC(OC=C2C(=O)N(C(=O)OC(C)(C)C)C3c4ccccc4C(F)C23)OC1=O (mixture of isomers) [A25*]
- Germination % at concentration of 0.001 mg l^−1 [1]: 1.2 c %
- Germination % at concentration of 0.01 mg l^−1 [2]: 14.3 c %
- Germination % at concentration of 0.1 mg l^−1 [3]: 86.3 ab %

Compound: CC(=O)OC1c2ccccc2C2C1C(=COC1C=C(C)C(=O)O1)C(=O)N2C(=O)OC(C)(C)C (mixture of isomers) [A24*]
- Germination % at concentration of 0.001 mg l^−1 [4]: 44.8 def %
- Germination % at concentration of 0.01 mg l^−1 [5]: 86.4 abcd %
- Germination % at concentration of 0.1 mg l^−1 [6]: 96.8 a %

Compound: CC1=CC(OC=C2C(=O)N(c3ccc(Cl)cc3)C3c4ccccc4CC23)OC1=O (stereo not drawn) [Compound A18]
- Germination % at concentration of 0.001 mg l^−1 [1]: 89.8 ab %
- Germination % at concentration of 0.01 mg l^−1 [2]: 99.1 a %
- Germination % at concentration of 0.1 mg l^−1 [3]: 99.1 a %

Compound: CCOC(=O)N1C(=O)C(=COC2C=C(C)C(=O)O2)C2Cc3ccccc3C21 (stereo not drawn) [Compound A21]
- Germination % at concentration of 0.001 mg l^−1 [4]: 83.7 abcde %
- Germination % at concentration of 0.01 mg l^−1 [5]: 93.4 abc %
- Germination % at concentration of 0.1 mg l^−1 [6]: 96.7 a %
